One test relates to leukemia cells P388. Kind of test: Effect on leukemia cells P388 bearing mice. In kind it is in vivo, mouse (BDF1). Conditions: 0.5 mg/kg; control 100 ± 5. On the procedure:
10^5 of leukemia cells P388 were transplanted intraperitoneally to a group of 5 BDF1 male mice. The human leucocyte pepsin-like enzyme was injected intravenously into the mice twice a day beginning on the next day until the animals died. The average life span was calculated and expressed as a percentage of control. [formula]

Test [1] concerns mouse leukemia cells L1210. Nature of the test: Effect on the growth of cultured mouse leukemia cells L1210. In kind it is cell-based. Particulars: 100 μg/ml, 48 hours, read-out: Growth inhibition rate. As to the method: (§1) Human breast cancer cells MX-1 and mouse leukemia cells L1210 were respectively suspended at a cell concentration of 10^5 /ml in Eagle's medium containing 10% calf serum and test substances. The cells were cultured at 37° C. under 5% CO2 for 48 hours. Then the number of viable cells was counted after staining with Tripan Blue. [formula]

Test [2] concerns human breast cancer cells MX-1. Kind of test: Effect on the growth of cultured human breast cancer cells MX-1. In kind it is cell-based. Particulars: 100 μg/ml, 48 hours, read-out: Growth inhibition rate. As to the method: as §1

Each structure is given as a SMILES string.

The text below walks through data of patent US4591504A, “Human leucocyte pepsin-like enzyme as a therapeutic agent for treating allergic disorders and immune complex diseases” (Mochida Pharmaceutical Co., Ltd., priority 1982, dated 1986).

For the compound `CO[C@@]12[C@H](COC(N)=O)C3=C(C(=O)C(C)=C(N)C3=O)N1C[C@@H]1N[C@@H]12` [Mitomycin C], the “Average life span (percentage of control)” value with leukemia cells P388 is 135 ± 16%. The inhibition at 100 µg/mL amounted to 61% in test [1] and 48% in test [2].

A word on the inhibition: it is the drop in the measured response relative to a control, in per cent.
